The term IC50 denotes the concentration that inhibits the measured activity by half. A lower IC50 goes with greater potency.

The text below walks through data of patent US8299267B2, “(3-hydroxy-4-amino-butan-2-yl) -3- (2-thiazol-2-yl-pyrrolidine-1-carbonyl) benzamide derivatives and related compounds as beta-secretase inhibitors for treating” (CoMentis, Inc., priority 2007, dated 2012).

For one assay, the target named is memapsin 2 (Homo sapiens, UniProt P56817). As to the kind of experiment: Inhibition of memapsin 2 beta-secretase activity toward fluorogenic substrate FS-2. In kind it is biochemical. The settings on record: memapsin 2, pH 4, 37° C., 20 minutes pre-incubation, substrate FS-2; read-out: M2Ki. Here is the method:
Potency of compounds were determined by measurement of their inhibition of memapsin 2 activity toward a fluorescent substrate. Kinetic inhibition experiments were performed using the procedure as described in Ermolieff, et al. (Biochemistry 39:12450-12456 (2000), the teachings of which are incorporated hereby in their entirety). Briefly, assays were performed at pH 4, 37° C., by pre-incubation of memapsin 2 enzyme with compound for 20 minutes. Activity measurements were initiated by addition of a fluorogenic substrate FS-2 (Bachem Americas, Torrance, Calif.) MCA-SEVNLDAEFK-DNP (SEQ ID NO.: 2). The substrate was derived from 10 amino acids of the human amyloid precursor protein (APP), with the Swedish variant amino acids at the beta-secretase cleavage site. The terminal amino acid was modified from arginine to lysine to facilitate derivatization with a functional group for detection by autofluorescence. The amino acid sequence of the “core” peptide of the substrate is SEVNLDAEFK (SEQ ID NO.: 3). The amino terminus was derivatized with (7-methoxycoumarin-4-yl)acetyl (MCA), and the epsilon amine of the lysine side chain of the terminal residue (K in sequence SEVNLDAEFK (SEQ ID NO.: 4)) was derivatized with 2,4-dinitrophenyl (DNP).

The test system of assay [1] is Aβ production in Chinese hamster ovary cells that over-express human APP695 with the London and Swedish mutations. Briefly: Cellular Aβ IC50 determination (Aβ40 sandwich ELISA). Type of assay: cell-based. The settings on record: Cricetulus griseus; Aβ40 in CHO cells over-expressing human APP695, 24 h incubation. As for the experimental part: The potency of compounds against memapsin 2 activity was determined in a cellular assay of Aβ production. […] Chinese hamster ovary cells that over-express human APP695 with the London and Swedish mutations were seeded in multi-well plates at 10% confluency. Compounds are dissolved in DMSO to concentrations near 1 mM, and diluted into culture media to a final concentration near 4 μM (final 0.4% DMSO). Compounds were diluted serially and applied to cells in multi-well plates 48 h after seeding. Incubation was continued in 5% CO2 at 37° C. for 24 h. Aliquots were removed and assayed for Aβ40 content using a sandwich ELISA (BioSource International). Amount of Aβ40 over the range of concentration of compounds, relative to control incubations, were fit to a 4-parameter IC50 model.
In general terms: ELISA stands for enzyme-linked immunosorbent assay.

memapsin 2, sequence (P56817 46-501): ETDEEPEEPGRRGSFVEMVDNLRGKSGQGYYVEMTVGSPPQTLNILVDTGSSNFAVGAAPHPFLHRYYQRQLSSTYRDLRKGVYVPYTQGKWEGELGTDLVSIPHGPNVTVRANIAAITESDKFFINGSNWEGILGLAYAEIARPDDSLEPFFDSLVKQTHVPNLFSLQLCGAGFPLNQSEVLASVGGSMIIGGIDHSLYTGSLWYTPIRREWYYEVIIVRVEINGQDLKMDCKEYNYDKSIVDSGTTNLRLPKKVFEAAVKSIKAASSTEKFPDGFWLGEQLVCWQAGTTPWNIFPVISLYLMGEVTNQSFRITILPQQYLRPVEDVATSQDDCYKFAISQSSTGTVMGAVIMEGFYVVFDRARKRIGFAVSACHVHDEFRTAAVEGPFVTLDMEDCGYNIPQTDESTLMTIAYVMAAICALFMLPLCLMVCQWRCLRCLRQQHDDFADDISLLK

Regarding `Cc1csc([C@H]2CCCN2C(=O)c2cccc(C(=O)N[C@@H](Cc3ccccc3)[C@H](O)CNCc3cccc(Cl)c3)c2)n1` [Compound 17, N-((2S,3R)-4-(3-chlorobenzylamino)-3-hydroxy-1-phenylbutan-2-yl)-3-((R)-2-(4-methylthiazol-2-yl)pyrrolidine-1-carbonyl)benzamide], on memapsin 2, the Ki is less than 100 nM. In assay [1], this molecule had an IC50 of less than 300 nM.

For `COc1cc(C(=O)N[C@@H](Cc2ccccc2)[C@H](O)CNCc2cccc(Cl)c2)cc(C(=O)N2CCC[C@@H]2c2nc(C)cs2)c1` [Compound 18, N-((2S,3R)-4-(3-chlorobenzylamino)-3-hydroxy-1-phenylbutan-2-yl)-3-methoxy-5-((R)-2-(4-methylthiazol-2-yl)pyrrolidine-1-carbonyl)benzamide], the Ki on memapsin 2 is less than 100 nM. The IC50 in assay [1] is less than 300 nM.

`COc1cc(C(=O)N[C@@H](Cc2ccccc2)[C@H](O)CN[C@@H](C)c2cccc(OC)c2)cc(C(=O)N2CCC[C@@H]2c2nc(C)cs2)c1` [Compound 20, N-((2S,3R)-3-hydroxy-4-((S)-1-(3-methoxyphenyl)ethylamino)-1-phenylbutan-2-yl)-3-methoxy-5-((R)-2-(4-methylthiazol-2-yl)pyrrolidine-1-carbonyl)benzamide]: the Ki on memapsin 2 was less than 100 nM. Further, the IC50 in assay [1] is less than 300 nM.

In the case of `COc1cccc(CNC[C@@H](O)[C@H](Cc2ccccc2)NC(=O)c2cccc(C(=O)N3CCCC3)c2)c1` [Compound 21, N-((2S,3R)-3-hydroxy-4-(3-methoxybenzylamino)-1-phenylbutan-2-yl)-3-(pyrrolidine-1-carbonyl)benzamide], at memapsin 2, the Ki is more than 201 nM. The molecule also returned an IC50 in assay [1] of more than 501 nM.

For `COc1cccc([C@H](C)NC[C@@H](O)[C@H](Cc2ccccc2)NC(=O)c2cccc(C(=O)N3CCC[C@@H]3c3nc(C)cs3)c2)c1` [Compound 22, N-((2S,3R)-3-hydroxy-4-((S)-1-(3-methoxyphenyl)ethylamino)-1-phenylbutan-2-yl)-3-((R)-2-(4-methylthiazol-2-yl)pyrrolidine-1-carbonyl)benzamide], the Ki on memapsin 2 was less than 100 nM. Moreover, the IC50 in assay [1] was less than 300 nM.

Turning to `COC[C@H]1CCCN1C(=O)c1cc(C)cc(C(=O)N[C@@H](Cc2ccccc2)[C@H](O)CNCc2cncc(C(C)C)c2)c1` [Compound 23, N-((2S,3R)-3-hydroxy-4-((5-isopropylpyridin-3-yl)methylamino)-1-phenylbutan-2-yl)-3-((R)-2-(methoxymethyl)pyrrolidine-1-carbonyl)-5-methylbenzamide], the Ki on memapsin 2 is less than 100 nM. The molecule further came in with an IC50 in assay [1] of less than 300 nM.

As for `Cc1csc([C@H]2CCCN2C(=O)c2cccc(C(=O)N[C@@H](Cc3ccccc3)[C@H](O)CNCc3cc(O)cc(C(C)C)c3)c2)n1` [Compound 24, N-((2S,3R)-3-hydroxy-4-(3-hydroxy-5-isopropylbenzylamino)-1-phenylbutan-2-yl)-3-((R)-2-(4-methylthiazol-2-yl)pyrrolidine-1-carbonyl)benzamide], the Ki at memapsin 2 is less than 100 nM. In assay [1], this molecule came in with an IC50 of less than 300 nM.

For the molecule `Cc1csc([C@H]2CCCN2C(=O)c2cc(C(=O)N[C@@H](Cc3ccccc3)[C@H](O)CNCc3cncc(C(C)C)c3)cc(-c3ncco3)c2)n1` [Compound 25, N-((2S,3R)-3-hydroxy-4-((5-isopropylpyridin-3-yl)methylamino)-1-phenylbutan-2-yl)-3-((R)-2-(4-methylthiazol-2-yl)pyrrolidine-1-carbonyl)-5-(oxazol-2-yl)benzamide], the Ki at memapsin 2 is less than 100 nM. This molecule also came in with an IC50 in assay [1] of less than 300 nM.

`Cc1csc([C@H]2COCN2C(=O)c2cccc(C(=O)N[C@@H](Cc3ccccc3)[C@H](O)CNCc3cccc(C(F)(F)F)c3)c2)n1` [Compound 26, N-((2S,3R)-3-hydroxy-1-phenyl-4-(3-(trifluoromethyl)benzylamino)butan-2-yl)-3-((R)-4-(4-methylthiazol-2-yl)oxazolidine-3-carbonyl)benzamide]: the Ki on memapsin 2 is less than 100 nM. The IC50 in assay [1] is less than 300 nM.

For `Cc1csc([C@H]2CCCN2C(=O)c2cncc(C(=O)N[C@@H](Cc3ccccc3)[C@H](O)CNCc3cncc(C(C)C)c3)c2)n1` [Compound 27, N-((2S,3R)-3-hydroxy-4-((5-isopropylpyridin-3-yl)methylamino)-1-phenylbutan-2-yl)-5-((R)-2-(4-methylthiazol-2-yl)pyrrolidine-1-carbonyl)nicotinamide], the Ki on memapsin 2 is less than 100 nM. Besides, in assay [1], the IC50 is less than 300 nM.

On to `Cc1csc([C@H]2CCCN2C(=O)c2cc(C(=O)N[C@@H](Cc3ccccc3)[C@H](O)CNCc3cccc(C(F)(F)F)c3)cc(-c3ncco3)c2)n1` [Compound 28, N-((2S,3R)-3-hydroxy-1-phenyl-4-(3-(trifluoromethyl)benzylamino)butan-2-yl)-3-((R)-2-(4-methylthiazol-2-yl)pyrrolidine-1-carbonyl)-5-(oxazol-2-yl)benzamide], for which the Ki at memapsin 2 is less than 100 nM. For the same molecule, the IC50 in assay [1] is less than 300 nM.

In the case of `Cc1csc([C@H]2CCCN2C(=O)c2cc(C(=O)N[C@@H](Cc3ccccc3)[C@H](O)CNCc3cncc(C(C)C)c3)cc(N(C)C)c2)n1` [Compound 29, 3-(dimethylamino)-N-((2S,3R)-3-hydroxy-4-((5-isopropylpyridin-3-yl)methylamino)-1-phenylbutan-2-yl)-5-((R)-2-(4-methylthiazol-2-yl)pyrrolidine-1-carbonyl)benzamide], at memapsin 2, the Ki is less than 100 nM. Moreover, in assay [1], the IC50 is less than 300 nM.

`Cc1csc([C@H]2CCCN2C(=O)c2cc(C(=O)N[C@@H](Cc3ccccc3)[C@H](O)CNCc3cccc(C(F)(F)F)c3)cc(N(C)C)c2)n1` [Compound 30, 3-(dimethylamino)-N-((2S,3R)-3-hydroxy-1-phenyl-4-(3-(trifluoromethyl)benzylamino)butan-2-yl)-5-((R)-2-(4-methylthiazol-2-yl)pyrrolidine-1-carbonyl)benzamide]: at memapsin 2, the Ki was less than 100 nM. In addition, the IC50 in assay [1] is less than 300 nM.

On to `Cc1csc([C@H]2CCCN2C(=O)c2cncc(C(=O)N[C@@H](Cc3ccccc3)[C@H](O)CNCc3cccc(C(F)(F)F)c3)c2)n1` [Compound 31, N-((2S,3R)-3-hydroxy-1-phenyl-4-(3-(trifluoromethyl)benzylamino)butan-2-yl)-5-((R)-2-(4-methylthiazol-2-yl)pyrrolidine-1-carbonyl)nicotinamide], for which the Ki at memapsin 2 is less than 100 nM. Also, in assay [1], the IC50 is less than 300 nM.

As to `Cc1csc([C@H]2CCCN2C(=O)c2cncc(C(=O)N[C@@H](Cc3ccccc3)[C@H](O)CNCc3cccc(C(C)(C)C)c3)c2)n1` [Compound 32, N-((2S,3R)-4-(3-tert-butylbenzylamino)-3-hydroxy-1-phenylbutan-2-yl)-5-((R)-2-(4-methylthiazol-2-yl)pyrrolidine-1-carbonyl)nicotinamide], the Ki at memapsin 2 was 101 to 200 nM. The IC50 in assay [1] is less than 300 nM.

Regarding `Cc1csc([C@H]2CCCN2C(=O)c2cc(C(=O)N[C@@H](Cc3ccccc3)[C@H](O)CNCc3cncc(C(C)C)c3)cc(-c3cnco3)c2)n1` [Compound 33, N-((2S,3R)-3-hydroxy-4-((5-isopropylpyridin-3-yl)methylamino)-1-phenylbutan-2-yl)-3-((R)-2-(4-methylthiazol-2-yl)pyrrolidine-1-carbonyl)-5-(oxazol-5-yl)benzamide], the Ki on memapsin 2 was less than 100 nM. The molecule also came in with an IC50 in assay [1] of less than 300 nM.

With `Cc1coc([C@H]2CCCN2C(=O)c2cccc(C(=O)N[C@@H](Cc3ccccc3)[C@H](O)CNCc3cncc(C(C)C)c3)c2)n1` [Compound 34, N-((2S,3R)-3-hydroxy-4-((5-isopropylpyridin-3-yl)methylamino)-1-phenylbutan-2-yl)-3-((R)-2-(4-methyloxazol-2-yl)pyrrolidine-1-carbonyl)benzamide], on memapsin 2, the Ki is less than 100 nM. The molecule also displayed an IC50 in assay [1] of less than 300 nM.

As to `Cc1coc([C@H]2CCCN2C(=O)c2cccc(C(=O)N[C@@H](Cc3ccccc3)[C@H](O)CNCc3cccc(C(F)(F)F)c3)c2)n1` [Compound 35, N-((2S,3R)-3-hydroxy-1-phenyl-4-(3-(trifluoromethyl)benzylamino)butan-2-yl)-3-((R)-2-(4-methyloxazol-2-yl)pyrrolidine-1-carbonyl)benzamide], the Ki at memapsin 2 was less than 100 nM. The molecule also yielded an IC50 in assay [1] of less than 300 nM.

As to `Cc1csc([C@H]2CCCN2C(=O)c2cc(C(=O)N[C@@H](Cc3ccccc3)[C@H](O)CNCc3cncc(C(C)(C)F)c3)cc(-c3ncco3)c2)n1` [Compound 38, N-((2S,3R)-4-((5-(2-fluoropropan-2-yl)pyridin-3-yl)methylamino)-3-hydroxy-1-phenylbutan-2-yl)-3-((R)-2-(4-methylthiazol-2-yl)pyrrolidine-1-carbonyl)-5-(oxazol-2-yl)benzamide], the Ki at memapsin 2 is less than 100 nM. The molecule further registered an IC50 in assay [1] of less than 300 nM.
